Here are results for 10 compounds from US8236843B2, “Anti inflammatory compounds” (Elder Pharmaceuticals Ltd., priority 2008, dated 2012).

The test system of data set [1] is Wistar rats. The conditions noted are these: rat, in vivo, po, 100 mg/kg.
Protocol: (§2) Assessment of Gastric Ulcerogenic Effects in the Rat on Acute Administration of Drugs
(§3) Groups of 6 male Wistar rats weighing 120-140 g were fasted for 24 h with free access to water. […] The lengths (in millimeters) of all hemorrhagic lesions were measured and the “gastric damage score” was calculated for each stomach by summing these values. After scoring the damage, a sample of the corpus region of each stomach was fixed in neutral buffered formalin for subsequent histologic assessment.
The nature of data set [2]: Acute oral toxicity studies (OECD AOT No. 425). The conditions noted are these: both sexes, mouse, in vivo, albino mice, observed 48 hrs. As to the method:
Acute Oral Toxicity Studies
The mice were observed continuously for 2 h for behavioral, neurological and autonomic profiles for any lethality or death for next 48 hrs. Based on the results obtained from this study, lethal dose (LD50) was calculated.

Data set [3] has as its system Wistar rats. The data set is described as follows: Carrageenan-induced rat paw edema model. The data set is classed as in vivo. The conditions noted are these: 10 mg/kg oral, 2 h before carrageenan; for Anti-inflammatory activity in Wistar rats (% inhibition) 3 h: paw edema at 3 h; for Anti-inflammatory activity in Wistar rats (% inhibition) 4 h: paw edema at 4 h. How it is done:
(§1) Male Wistar rats weighing 175-200 g and Swiss albino mice weighing 20-25 g were housed in the Animal Care Facility. The animals were fed standard laboratory feed and tap water. Unless otherwise noted, in all experiments described in the following text, the sample size in each group was at least 6.
In Vivo Screening Method, Carrageenan-Induced Rat Paw Edema Model
Male Wistar rats (120-140 gm) were fasted for 16 hour before the experiment. Anti-inflammatory activity was evaluated by carrageenan-induced paw edema test in rats. Diclofenac sodium, tolfenamic acid and celecoxib at 10 mg/kg were administered as standard drugs for comparison. The test molecules were administered at dose level 10 mg/kg. Molecules were suspended in 0.25% carboxymethylcellulose (CMC) and administered orally in a volume of 10 ml/kg, 2 hour before carrageenan injection. Paw edema was induced in rats by intradermal injection of 50 μl, of 1% λ-carrageenan in saline into the planer surface of right hind paw. The volume of the injected paw was measured hourly thereafter for 4 hours using plethysmometer (Ugo-Basile, Italy). Paw edema was compared with vehicle controlled group and percentage inhibition was calculated.

The test system of a further data set is Swiss albino mice. In words: Analgesic activity against acetic acid induced writhing. The note with it: 10 mg/kg p.o., 1 h before i.p. 0.6% acetic acid; writhes counted for 10 min. It is filed as in vivo.
From the text: as §1
Analgesic Activity Against Acetic Acid Induced Writhing
Pain was induced by injection of irritant i.e. acetic acid into the peritoneal cavity of mice. […] Vehicle (1% w/v carboxymethylcellulose (CMC), 0.5 ml per orally (p.o.)) was given to control group (n=6 per group) of mice. […]. One hour following the administration of test molecule, 0.1 ml/100 gm of 0.6% v/v acetic acid solution was injected intraperitoneally to each of the test mice. The number of writhes that occurred within the next 10 min following acetic acid administration was counted and recorded. Results were expressed as percentage inhibition of writhing.

Data set [4] concerns Wistar rats. The note with it: for Gastric score: 100 mg/kg oral, fasted rats, 5 hours, sum of lesion lengths, mean SEM, 6 rats; for Histopathology study (ulcerogenecity): Dose 100 mg/kg oral, rat stomach.
Protocol: as §2, §3

Each structure is given as a SMILES string. Read-outs that look alike come from different tables or passages of the source. Some results are limits rather than exact numbers.

In turn, `NS(=O)(=O)c1ccc(Nc2ccccc2-c2ccc(Cn3cc([N+](=O)[O-])nc3CO)cc2)cc1` [Formula (I) Sr. No. 7, 4-[4′-(2-Hydroxymethyl-4-nitro-imidazol-1-ylmethyl)-biphenyl-2-ylamino]-benzenesulfonamide] returned a melting point of 154 to 155 °C.

Take `Cc1c(Cl)cccc1Nc1ccccc1C(=O)O` [Tolfenamic acid]: the “Histopathology study (ulcerogenecity)” value in the data set with Wistar rats [1] is “Shows sign of”. Further, the LD50 at 48 h in data set [2] was below 550 mg/kg.

With `Cc1nc([N+](=O)[O-])c(Br)n1Cc1ccc(-c2ccccc2C(=O)O)cc1`, the melting point lay within 222 to 225 °C.

The compound `O=[N+]([O-])c1cn(Cc2ccc(-c3ccccc3-c3nnn[nH]3)cc2)cn1` came in with a melting point of 202 to 204 °C.

With `N#Cc1ccccc1-c1ccc(Cn2cnc([N+](=O)[O-])c2)cc1` [4′-(4-Nitro-imidazol-1-ylmethyl)-biphenyl-2-carbonitrile], in the data set on Wistar rats [3], the “Anti-inflammatory activity in Wistar rats (% inhibition) 3 h” value is 35.82% and the “Anti-inflammatory activity in Wistar rats (% inhibition) 4 h” value turned out to be 44.28%. Further, in the data set with Swiss albino mice, the “Analgesic activity in Swiss albino mice (% inhibition)” value (shortened to “Analgesic activity … (% inhibition)”) is on record as 86.61%. For the same compound, in the data set with Wistar rats [4], the Gastric score is recorded as 1.83 ± 0.54 and the “Histopathology study (ulcerogenecity)” value is given as “No sign of ulceration”.

With `O=C(O)c1ccccc1-c1ccc(Cn2cnc([N+](=O)[O-])c2)cc1` [4′-(4-Nitro-imidazol-1-ylmethyl)-biphenyl-2-carboxylic acid], in the data set with Wistar rats [3], the “Anti-inflammatory activity in Wistar rats (% inhibition) 3 h” value is recorded as 38.31% and the “Anti-inflammatory activity in Wistar rats (% inhibition) 4 h” value is on record as 44.63%. Besides, in the data set on Swiss albino mice, the “Analgesic activity … (% inhibition)” value came to 84.13%. In addition, in the data set on Wistar rats [4], the Gastric score stood at 1.6 ± 0.50 and the “Histopathology study (ulcerogenecity)” value is recorded as “No sign of ulceration”.

Regarding `Cc1nc([N+](=O)[O-])c(Br)n1Cc1ccc(-c2ccccc2C#N)cc1`, the melting point lay in the range of 158 to 162 °C.

Turning to `Cc1ccc(-c2cc(C(F)(F)F)nn2-c2ccc(S(N)(=O)=O)cc2)cc1` [Celecoxib, reference compound], in the data set with Wistar rats [3], the “Anti-inflammatory activity in Wistar rats (% inhibition) 3 h” value worked out at 45.24% and the “Anti-inflammatory activity in Wistar rats (% inhibition) 4 h” value was 45.32%. Besides, the “Histopathology study (ulcerogenecity)” value in the data set with Wistar rats [1] was “No sign of ulceration”. For the same compound, in the data set with Swiss albino mice, the “Analgesic activity … (% inhibition)” value is given as 77.0%. For the same compound, the LD50 at 48 h in data set [2] was below 2000 mg/kg.

Take `Cc1ncc([N+](=O)[O-])n1Cc1ccc(-c2ccccc2C#N)cc1` [4′-(2-Methyl-5-nitro-imidazol-1-ylmethyl)-biphenyl-2-carbonitrile]: in the data set with Wistar rats [3], the “Anti-inflammatory activity in Wistar rats (% inhibition) 3 h” value is reported as 19.52% and the “Anti-inflammatory activity in Wistar rats (% inhibition) 4 h” value amounted to 24.25%. Further, the “Analgesic activity … (% inhibition)” value in the data set on Swiss albino mice is given as 84.25%.

For the compound `O=C(O)Cc1ccccc1Nc1c(Cl)cccc1Cl` [Diclofenac sodium, reference compound], in the data set with Wistar rats [3], the “Anti-inflammatory activity in Wistar rats (% inhibition) 3 h” value is given as 35.05% and the “Anti-inflammatory activity in Wistar rats (% inhibition) 4 h” value worked out at 39.99%. In addition, in the data set with Swiss albino mice, the “Analgesic activity … (% inhibition)” value came to 89.51%.
